Data taken from patent US20060069132A1, “Azolecarboxamide herbicides” (priority 2004, published 2006).

Columns and labels:
lambsquarters = test: Test B pre-/postemergence herbicide test; type: in vivo, Chenopodium album; settings: for Lambsquarters plant response rating: postemergence, scale 0 (no effect) to 100 (complete control)
In short: (§1)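 Seeds were planted and treated preemergence with compounds formulated in a non-phytotoxic solvent mixture containing surfactant, while plants at the 1- to 4-leaf stage (2 to 18 cm) received postemergence sprays. Flooded paddy plants were grown to the 2-leaf stage. After 13 to 15 days in a greenhouse, injury was visually rated 0–100 against untreated controls.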

rice [1] = test: Test B flooded paddy test; type: in vivo, Oryza sativa; settings: 1000 g ai/ha, scale 0 to 100 (0 no effect, 100 complete control)
In short: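 Visual ratings, 0 (no effect) to 100 (complete control), made versus controls after 13–15 d greenhouse. Paddy plants treated at 2-leaf stage; postemergence plants at 1- to 4-leaf stage, 2–18 cm tall.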

Surinam grass = test: Test B pre-/postemergence herbicide test; type: in vivo, Urochloa decumbens; settings: for Surinam Grass plant response rating: postemergence, scale 0 (no effect) to 100 (complete control)
In short: as §1

barnyardgrass [2] = test: Test B pre-/postemergence herbicide test; type: in vivo, Echinochloa crus-galli; settings: 0 = no effect, 100 = complete control, preemergence
In short: (§2)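 Pre: seeds sown, then sprayed. Post: 1–4-leaf plants (2–18 cm) sprayed at the same time. Paddy: flooded, treated at 2-leaf stage. Formulation: non-phytotoxic solvent with surfactant. Greenhouse 13–15 days; visual 0–100 score relative to controls.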

velvetleaf = test: Test B pre-/postemergence herbicide test; type: in vivo, Abutilon theophrasti; settings: for Velvetleaf plant response rating: postemergence, scale 0 (no effect) to 100 (complete control)
In short: as §1

corn = test: Test B pre-/postemergence herbicide test; type: in vivo, Zea mays; settings: for Corn plant response rating: postemergence, visual rating, scale 0 (no effect) to 100 (complete control)
In short: as §1

blackgrass = test: Test B postemergence herbicide test; type: in vivo, Alopecurus myosuroides; settings: postemergence, visual rating, scale 0 (no effect) to 100 (complete control)
In short: (§3)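 Read-out: visual comparison with controls, scored 0 to 100, where 100 means complete control and 0 no effect. Formulated chemicals were applied postemergence to plants 2–18 cm tall (1- to 4-leaf), or to flooded-paddy plants at the 2-leaf stage, then held 13 to 15 days under glass.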

wild oat = test: Test B postemergence herbicide test; type: in vivo, Avena fatua; settings: postemergence, visual rating, scale 0 (no effect) to 100 (complete control)
In short: as §3

[3] = test system: small flower umbrella sedge; test: Test B flooded paddy test; type: in vivo, Cyperus difformis; settings: 1000 g ai/ha, scale 0 to 100 (0 no effect, 100 complete control)
In short: as §3

ducksalad = test: Test B flooded paddy test; type: in vivo, Heteranthera limosa; settings: 1000 g ai/ha, scale 0 to 100 (0 no effect, 100 complete control)
In short: as §3

large crabgrass = test: Test B pre-/postemergence herbicide test; type: in vivo, Digitaria sanguinalis; settings: for Crabgrass, Large plant response rating: postemergence, scale 0 (no effect) to 100 (complete control)
In short: as §1

morningglory = test: Test B pre-/postemergence herbicide test; type: in vivo, Ipomoea coccinea; settings: for Morningglory plant response rating: postemergence, scale 0 (no effect) to 100 (complete control)
In short: as §2

cocklebur = test: Test B pre-/postemergence herbicide test; type: in vivo, Xanthium strumarium; settings: for Cocklebur plant response rating: postemergence, scale 0 (no effect) to 100 (complete control)
In short: as §2

barnyardgrass [4] = test: Test B flooded paddy test; type: in vivo, Echinochloa crus-galli; settings: 1000 g ai/ha, scale 0 to 100 (0 no effect, 100 complete control)
In short: as §3

giant foxtail = test: Test B pre-/postemergence herbicide test; type: in vivo, Setaria faberi; settings: for Foxtail, Giant plant response rating: postemergence, scale 0 (no effect) to 100 (complete control)
In short: as §1

rice [5] = test: Test B pre-/postemergence herbicide test; type: in vivo, Oryza sativa; settings: 0 = no effect, 100 = complete control, preemergence
In short: as §1

wheat = test: Test B postemergence herbicide test; type: in vivo, Triticum aestivum; parameters: key to Wheat plant response rating: 0 = no effect, 100 = complete control; settings: postemergence, visual rating, scale 0 (no effect) to 100 (complete control)
In short: as §3

pigweed = test: Test B pre-/postemergence herbicide test; type: in vivo, Amaranthus retroflexus; settings: for Pigweed plant response rating: postemergence, scale 0 (no effect) to 100 (complete control)
In short: as §1

[6] = 125 g ai/ha, 0 = no effect, 100 = complete control, preemergence
[7] = 500 g ai/ha, visual rating, 0 = no effect, 100 = complete control, preemergence

## CCc1cn(C(C)(C)C)nc1C(=O)Nc1cc(C(=O)N(CC)CC)ccn1 [Compound 234]
lambsquarters; [6]
  Lambsquarters plant response rating (0 to 100 scale): 0
lambsquarters; [7]
  Plant response rating, Lambsquarters: 50
lambsquarters; 125 g ai/ha, visual rating
  Lambsquarters plant response rating: 20
lambsquarters; 500 g ai/ha, visual rating
  Lambsquarters plant response rating: 40
Rice [1]
  Rice plant response rating: 0
Surinam grass; [6]
  Surinam Grass plant response rating (0 to 100 scale): 0
Surinam grass; [7]
  Plant response rating, Surinam Grass: 0
Surinam grass; 125 g ai/ha, visual rating
  Surinam Grass plant response rating: 0
Surinam grass; 500 g ai/ha, visual rating
  Surinam Grass plant response rating: 10
Barnyardgrass [2]; 125 g ai/ha
  Barnyardgrass plant response rating (0 to 100 scale): 0
Barnyardgrass [2]; 500 g ai/ha, visual rating
  Plant response rating, Barnyardgrass: 0
velvetleaf; [6]
  Velvetleaf plant response rating (0 to 100 scale): 0
velvetleaf; [7]
  Plant response rating, Velvetleaf: 0
velvetleaf; 125 g ai/ha, visual rating
  Velvetleaf plant response rating: 20
velvetleaf; 500 g ai/ha, visual rating
  Velvetleaf plant response rating: 30
corn; [6]
  Corn plant response rating (0 to 100 scale): 0
corn; 125 g ai/ha
  Corn plant response rating: 0
corn; 500 g ai/ha
  Corn plant response rating: 20
blackgrass; 125 g ai/ha
  Blackgrass plant response rating: 0
blackgrass; 500 g ai/ha
  Blackgrass plant response rating: 0
Wild oat; 125 g ai/ha
  Oat, Wild plant response rating: 20
Wild oat; 500 g ai/ha
  Oat, Wild plant response rating: 20
[3]
  Sedge, Umbrella plant response rating: 0
ducksalad
  Ducksalad plant response rating: 0
Large crabgrass; [6]
  Crabgrass, Large plant response rating (0 to 100 scale): 0
Large crabgrass; [7]
  Plant response rating, Crabgrass, Large: 40
Large crabgrass; 125 g ai/ha, visual rating
  Crabgrass, Large plant response rating: 10
Large crabgrass; 500 g ai/ha, visual rating
  Crabgrass, Large plant response rating: 20
morningglory; [6]
  Morningglory plant response rating (0 to 100 scale): 0
morningglory; [7]
  Plant response rating, Morningglory: 0
morningglory; 125 g ai/ha, visual rating
  Morningglory plant response rating: 20
morningglory; 500 g ai/ha, visual rating
  Morningglory plant response rating: 70
cocklebur; [6]
  Cocklebur plant response rating (0 to 100 scale): 0
cocklebur; [7]
  Plant response rating, Cocklebur: 0
cocklebur; 125 g ai/ha, visual rating
  Cocklebur plant response rating: 10
cocklebur; 500 g ai/ha, visual rating
  Cocklebur plant response rating: 20
Barnyardgrass [4]
  Barnyardgrass plant response rating: 0
Giant foxtail; [6]
  Foxtail, Giant plant response rating (0 to 100 scale): 0
Giant foxtail; [7]
  Plant response rating, Foxtail, Giant: 10
Giant foxtail; 125 g ai/ha, visual rating
  Foxtail, Giant plant response rating: 0
Giant foxtail; 500 g ai/ha, visual rating
  Foxtail, Giant plant response rating: 30
Rice [5]; 125 g ai/ha
  Rice plant response rating (0 to 100 scale): 0
Rice [5]; 500 g ai/ha, visual rating
  Plant response rating, Rice: 0
wheat; 125 g ai/ha
  Wheat plant response rating: 0
wheat; 500 g ai/ha
  Wheat plant response rating: 10
pigweed; [6]
  Pigweed plant response rating (0 to 100 scale): 0
pigweed; [7]
  Plant response rating, Pigweed: 40
pigweed; 125 g ai/ha, visual rating
  Pigweed plant response rating: 30
pigweed; 500 g ai/ha, visual rating
  Pigweed plant response rating: 30
